Results from US11297835B2, “Aqueous compositions of perillic acid compounds” (B.R.A.I.N. BIOTECHNOLOGY RESEARCH AND INFORMATION NETWORK AG, priority 2016, dated 2022).

Experiments:
[1] = system: Staphylococcus aureus ATCC®6538; experiment: MIC, microdilution method adapted from DIN EN ISO 20776-1:2006; format: cell-based; conditions: no growth after 24 h and 72 h
Description: (§1) The antimicrobial activity of sodium perillate was examined in vitro using the microdilution method adapted from DIN EN ISO 20776-1:2006. R-Perillic acid and S-perillic acid were used as reference compounds. All experiments were done in 96-well plates in a final volume of 200 μL. Stock solutions of the investigated compounds were prepared in 25 mM buffer. The procedure was conducted as following: 4 μL of the particular stock solution were mixed with 196 μL culture medium containing a defined inoculum of the respective target strain. Sterile controls (not inoculated) and growth controls (buffer in-stead of compound added) were performed. All compound concentrations were tested in triplicate. The following strains were examined: Escherichia coli ATCC®8739, Pseudomonas aeruginosa ATCC®9027, Stapyhlococcus aureus ATCC®6538, Candida albicans ATCC®10231 and Aspergillus brasiliensis ATCC®16404. The following culture media were used: Mueller-Hinton II Bouillon (Escherichia coli, Pseudomonas aeruginosa and Staphylococcus aureus), yeast peptone dextrose (Candida albicans) and potato dextrose (Aspergillus brasiliensis). All culture media were buffered with 25 mM MES-buffer. For compound testing the plates were incubated at 37° C. (Escherichia coli, Pseudomonas aeruginosa and Staphylococcus aureus), at 28° C. (Candida albicans) and at 25° C. (Aspergillus brasiliensis). Plates were evaluated after 24 h and 72 h, respectively. The minimal inhibitory concentration is defined as the concentration where no microbial growth was observed after 24 h and 72 h incubation at the specified temperature.
(§2) Table 1 Determination of the minimal inhibition concentration (MIC, % w/v) of sodium perillate against five classical spoiling organisms under acidic (pH<6.5) and alkaline (pH>7.5) conditions using the microdilution method adapted according to DIN EN ISO 20776-1:2006. The experiments were performed in micro-well plates in a final volume of 200 μL. MIC-values are given according to the following letter code. A>1% w/v, B=0.5-1% w/v, C=0.1-0.5% w/v. D<0.1% w/v.

[2] = system: Escherichia coli ATCC®8739; experiment: as above; format: cell-based; conditions: no growth after 24 h and 72 h
Description: as §1, §2

[3] = system: Aspergillus brasiliensis ATCC®16404; experiment: as above; format: cell-based; conditions: pH <6.5; no growth after 24 h and 72 h
Description: as §1, §2

[4] = system: Candida albicans ATCC®10231; experiment: as above; format: cell-based; conditions: no growth after 24 h and 72 h
Description: as §1, §2

[5] = system: Pseudomonas aeruginosa ATCC®9027; experiment: as above; format: cell-based; conditions: no growth after 24 h and 72 h
Description: as §1, §2

[6] = system: Staphylococcus aureus ATCC®6538; experiment: Conservation efficacy testing in cosmetic oil-water-emulsion; format: cell-based; conditions: O/W emulsion pH 5-6, room temperature
Description: (§3) The conservation efficacy of sodium perillate in a final product was determined using two different formulations: • a) an oil-water-emulsion pH 5.5 (example for a cosmetic product), • b) a water-based glucose solution at pH 3.5 (example for a non-carbonated soft drink).
(§4) Hereby, a defined inoculum of the test strains was added directly to the formulations. In order to examine product preservation by sodium perillate or perillic acid, the formulations were incubated at room temperature for 4 to 16 weeks, respectively. Samples were taken every 7 days and […] (cfu) were counted on agar plates.
(§5) Among others the following strains were used to determine the efficacy of sodium peril-late in an oil-water emulsion: Escherichia coli ATCC®8739, Pseudomonas aeruginosa ATCC®9027, Stapyhlococcus aureus ATCC®6538, Candida albicans ATCC®10231, and Aspergillus brasiliensis ATCC®16404.
(§6) Table 2 Conservation efficacy testing of a typical cosmetic oil-water-emulsion at pH 5-6 supplemented with sodium perillate using five classical microbial test strains. All formulations were inoculated with a defined cell concentration and incubated over a time of 28 days at room temperature under standardized conditions. After 7, 14, 21 and 28 days samples were taken and the colony forming units (cfu) were calculated.

[7] = system: Escherichia coli ATCC®8739; experiment: as above; format: cell-based; conditions: O/W emulsion pH 5-6, room temperature
Description: as §3, §4, §5, §6

[8] = system: Aspergillus brasiliensis ATCC®16404; experiment: as above; format: cell-based; conditions: O/W emulsion pH 5-6, room temperature
Description: as §3, §4, §5, §6

[9] = system: Candida albicans ATCC®10231; experiment: as above; format: cell-based; conditions: O/W emulsion pH 5-6, room temperature
Description: as §3, §4, §5, §6

[10] = system: Pseudomonas aeruginosa ATCC®9027; experiment: as above; format: cell-based; conditions: O/W emulsion pH 5-6, room temperature
Description: as §3, §4, §5, §6

Saccharomyces sp. = experiment: Conservation efficacy testing in aqueous formulation (juice matrix); format: cell-based; conditions: aqueous formulation (juice matrix) pH 2.5-4, room temperature
Description: as §3, §4
(§7) Among others the following species were used to determine the efficacy of sodium perillate in a water-based glucose formulation: Saccharomyces sp., Schizosaccharomyces sp., Asaia sp., Lactobacillus sp., and Aspergillus sp.
(§8) Table 3 Illustration of cell reduction using sodium perillate in a typical aqueous formulation (juice matrix) for beverages pH 2.5-4 supplemented with sodium perillate. Conservation efficacy testing was performed using five microbial test strains: Saccharomyces sp., Schizosaccharomyces sp., Asaia sp., Lactobacillus sp., and Aspergillus sp. All formulations were inoculated with a defined cell concentration and incubated at room temperature under standardized conditions. After 7, 14, 21 and 28 days samples were taken and the colony forming units (cfu) were calculated and shown here.

Aspergillus sp. = experiment: as above; format: cell-based; conditions: aqueous formulation (juice matrix) pH 2.5-4, room temperature
Description: as §3, §4, §7, §8

Schizosaccharomyces sp. = experiment: as above; format: cell-based; conditions: aqueous formulation (juice matrix) pH 2.5-4, room temperature
Description: as §3, §4, §7, §8

Asaia sp. = experiment: as above; format: cell-based; conditions: aqueous formulation (juice matrix) pH 2.5-4, room temperature
Description: as §3, §4, §7, §8

Lactobacillus sp. = experiment: as above; format: cell-based; conditions: aqueous formulation (juice matrix) pH 2.5-4, room temperature
Description: as §3, §4, §7, §8

[11] = Solubility in water-based systems; format: physicochemical; conditions: neutral pH; compared to the free perillic acid
[12] = Stability investigation of sodium perillate on storage (TLC, GC, HPLC recovery); format: physicochemical; conditions: stored 12 months at 4° C., 22-25° C. and 50° C., gas and liquid chromatography
Description: Sodium perillate was prepared by adding a defined volume of a 0.1 M sodium hydroxide (NaOH) solution to perillic acid to give an aqueous solution of pH 7.0. The water was removed by evaporation resulting in a colorless solid. In order to investigate the stability of sodium perillate, the compound was stored for 12 months at 4° C., 22-25° C. (resemble room temperature) and 50° C. At certain time intervals all samples were examined and evaluated qualitatively using thin layer chromatography and quantitatively using gas and liquid chromatography. The results were compared to the stability of R perillic acid. […] These experiments highlight the long-term stability of sodium perillate.
Table 5 Recovery of sodium perillate measured by liquid chromatography (HPLC). Column: Phenomenex Luna 018. Method: 70% acetonitrile and 30% water, isocratic. Recovery values were calculated according to a calibration curve performed with sodium perillate in the range of 0.05-2 mM in acetonitrile. Detection was carried out by UV-light (DAD-detector) at 217 and 240 nm.

pKa = format: physicochemical; conditions: weak acid of which sodium perillate is the salt

## C=C(C)[C@H]1CC=C(C(=O)O)CC1 [R-Perillic Acid, R-Perillic acid]
[1]; pH <6.5
  MIC: D (D<0.1% w/v)
[1]; pH >7.5
  MIC: B (B=0.5-1% w/v)
[2]; pH <6.5
  MIC: C (C=0.1-0.5% w/v)
[2]; pH >7.5
  MIC: B (B=0.5-1% w/v)
[3]
  MIC: D (D<0.1% w/v)
[4]; pH <6.5
  MIC: D (D<0.1% w/v)
[4]; pH >7.5
  MIC: C (C=0.1-0.5% w/v)
[5]; pH <6.5
  MIC: B (B=0.5-1% w/v)
[5]; pH >7.5
  MIC: A (A>1% w/v)

## C=C(C)[C@@H]1CC=C(C(=O)O)CC1 [S-Perillic Acid, S-perillic acid]
[1]; pH <6.5
  MIC: D (D<0.1% w/v)
[1]; pH >7.5
  MIC: B (B=0.5-1% w/v)
[2]; pH <6.5
  MIC: C (C=0.1-0.5% w/v)
[2]; pH >7.5
  MIC: B (B=0.5-1% w/v)
[3]
  MIC: D (D<0.1% w/v)
[4]; pH <6.5
  MIC: D (D<0.1% w/v)
[4]; pH >7.5
  MIC: C (C=0.1-0.5% w/v)
[5]; pH <6.5
  MIC: B (B=0.5-1% w/v)
[5]; pH >7.5
  MIC: A (A>1% w/v)

## C=C(C)C1CC=C(C(=O)[O-])CC1.[Na+] (stereo not drawn) [Sodium perillate, sodium perillate]
[1]; pH <6.5
  MIC: D (D<0.1% w/v)
[1]; pH >7.5
  MIC: B (B=0.5-1% w/v)
[2]; pH <6.5
  MIC: C (C=0.1-0.5% w/v)
[2]; pH >7.5
  MIC: B (B=0.5-1% w/v)
[3]
  MIC: D (D<0.1% w/v)
[4]; pH <6.5
  MIC: D (D<0.1% w/v)
[4]; pH >7.5
  MIC: C (C=0.1-0.5% w/v)
[5]; pH <6.5
  MIC: B (B=0.5-1% w/v)
[5]; pH >7.5
  MIC: A (A>1% w/v)
[6]; after 28 days
  Reduced log-steps After T28: 6 log-steps
[6]; day 0
  CFU/mL at Sampling Timepoint T0: 130,000 CFU/mL
[6]; day 7
  CFU/mL at Sampling Timepoint T7: 0 CFU/mL
[6]; day 14
  CFU/mL at Sampling Timepoint T14: 0 CFU/mL
[6]; day 21
  CFU/mL at Sampling Timepoint T21: 0 CFU/mL
[6]; day 28
  CFU/mL at Sampling Timepoint T28: 0 CFU/mL
[7]; after 28 days
  Reduced log-steps After T28: 3 log-steps
[7]; day 0
  CFU/mL at Sampling Timepoint T0: 1,680,000 CFU/mL
[7]; day 7
  CFU/mL at Sampling Timepoint T7: 53,500 CFU/mL
[7]; day 14
  CFU/mL at Sampling Timepoint T14: 190 CFU/mL
[7]; day 21
  CFU/mL at Sampling Timepoint T21: 370 CFU/mL
[7]; day 28
  CFU/mL at Sampling Timepoint T28: 1,430 CFU/mL
[8]; after 28 days
  Reduced log-steps After T28: 2 log-steps
[8]; day 0
  CFU/mL at Sampling Timepoint T0: 11,000 CFU/mL
[8]; day 7
  CFU/mL at Sampling Timepoint T7: 13,000 CFU/mL
[8]; day 14
  CFU/mL at Sampling Timepoint T14: 2,270 CFU/mL
[8]; day 21
  CFU/mL at Sampling Timepoint T21: 2,900 CFU/mL
[8]; day 28
  CFU/mL at Sampling Timepoint T28: 170 CFU/mL
[9]; after 28 days
  Reduced log-steps After T28: 2 log-steps
[9]; day 0
  CFU/mL at Sampling Timepoint T0: 68,000 CFU/mL
[9]; day 7
  CFU/mL at Sampling Timepoint T7: 8,260 CFU/mL
[9]; day 14
  CFU/mL at Sampling Timepoint T14: 1,925 CFU/mL
[9]; day 21
  CFU/mL at Sampling Timepoint T21: 4,100 CFU/mL
[9]; day 28
  CFU/mL at Sampling Timepoint T28: 630 CFU/mL
[10]; after 28 days
  Reduced log-steps After T28: 3 log-steps
[10]; day 0
  CFU/mL at Sampling Timepoint T0: 580,000 CFU/mL
[10]; day 7
  CFU/mL at Sampling Timepoint T7: 45,000 CFU/mL
[10]; day 14
  CFU/mL at Sampling Timepoint T14: 11,500 CFU/mL
[10]; day 21
  CFU/mL at Sampling Timepoint T21: 805 CFU/mL
[10]; day 28
  CFU/mL at Sampling Timepoint T28: 235 CFU/mL
Saccharomyces sp.; day 0
  CFU/mL at Sampling Timepoint T0: 10 CFU/mL
Saccharomyces sp.; day 7
  CFU/mL at Sampling Timepoint T7: 23,900 CFU/mL
Saccharomyces sp.; day 14
  CFU/mL at Sampling Timepoint T14: 52,900 CFU/mL
Saccharomyces sp.; day 21
  CFU/mL at Sampling Timepoint T21: 530,000 CFU/mL
Saccharomyces sp.; day 28
  CFU/mL at Sampling Timepoint T28: 470,000 CFU/mL
Aspergillus sp.; day 0
  CFU/mL at Sampling Timepoint T0: 10 CFU/mL
Aspergillus sp.; day 7
  CFU/mL at Sampling Timepoint T7: 0 CFU/mL
Aspergillus sp.; day 14
  CFU/mL at Sampling Timepoint T14: 0 CFU/mL
Aspergillus sp.; day 21
  CFU/mL at Sampling Timepoint T21: 0 CFU/mL
Aspergillus sp.; day 28
  CFU/mL at Sampling Timepoint T28: 0 CFU/mL
Schizosaccharomyces sp.; day 0
  CFU/mL at Sampling Timepoint T0: 55 CFU/mL
Schizosaccharomyces sp.; day 7
  CFU/mL at Sampling Timepoint T7: 350 CFU/mL
Schizosaccharomyces sp.; day 14
  CFU/mL at Sampling Timepoint T14: 3,265 CFU/mL
Schizosaccharomyces sp.; day 21
  CFU/mL at Sampling Timepoint T21: 4,990 CFU/mL
Asaia sp.; day 0
  CFU/mL at Sampling Timepoint T0: 45 CFU/mL
Asaia sp.; day 7
  CFU/mL at Sampling Timepoint T7: 17,250 CFU/mL
Asaia sp.; day 14
  CFU/mL at Sampling Timepoint T14: 8,940 CFU/mL
Asaia sp.; day 21
  CFU/mL at Sampling Timepoint T21: 725 CFU/mL
Asaia sp.; day 28
  CFU/mL at Sampling Timepoint T28: 685 CFU/mL
Lactobacillus sp.; day 0
  CFU/mL at Sampling Timepoint T0: 10 CFU/mL
Lactobacillus sp.; day 7
  CFU/mL at Sampling Timepoint T7: 10 CFU/mL
Lactobacillus sp.; day 14
  CFU/mL at Sampling Timepoint T14: 56 CFU/mL
Lactobacillus sp.; day 21
  CFU/mL at Sampling Timepoint T21: 340 CFU/mL
Lactobacillus sp.; day 28
  CFU/mL at Sampling Timepoint T28: 910 CFU/mL
[11]
  Solubility in water-based systems: higher solubility
[12]
  Degradation products detected: no degradation products

## C=C(C)[C@@H]1CC=C(C(=O)O)CC1 [perillic acid]
pKa
  pKa: 4.96
